Experimental data published in ChEMBL document CHEMBL1201861, “Genomics of Drug Sensitity in Cancer screening data, Wellcome Trust Sanger Institute”.

How the values were obtained:
[1] = system: COLO-792; test: cells; format: functional, cell-based; details: Homo sapiens
Description: SANGER: Inhibition of human COLO-792 cell growth in a cell viability assay.

[2] = system: Capan-2; test: cells; format: functional, cell-based; details: Homo sapiens;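 note: Capan-2 cell growth inhibition, read out with a viability assay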
Description: SANGER: Inhibition of human Capan-2 cell growth in a cell viability assay.

[3] = system: EW-22; test: cells; format: functional, cell-based; details: Homo sapiens;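 note: growth inhibition of the EW-22 cell line, measured with a cell viability readout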
Description: SANGER: Inhibition of human EW-22 cell growth in a cell viability assay.

[4] = system: HCT-15; test: cells; format: functional, cell-based; details: Homo sapiens;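 note: cell viability readout, IC50 reflecting suppression of HCT-15 cell growth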
Description: SANGER: Inhibition of human HCT-15 cell growth in a cell viability assay.

[5] = system: HT-1080; test: cells; format: functional, cell-based; details: Homo sapiens
Description: SANGER: Inhibition of human HT-1080 cell growth in a cell viability assay.

[6] = system: HT-3; test: cells; format: functional, cell-based; details: Homo sapiens;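 note: growth inhibition measured with a cell viability readout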
Description: SANGER: Inhibition of human HT-3 cell growth in a cell viability assay.

[7] = system: HT55; test: cells; format: functional, cell-based; details: Homo sapiens;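 note: cell viability readout measuring growth inhibition of human HT55 cells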
Description: SANGER: Inhibition of human HT55 cell growth in a cell viability assay.

[8] = system: Huh-7; test: cells; format: functional, cell-based; details: Homo sapiens;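 note: HuH-7 cell growth inhibition, read out with a cell viability assay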
Description: SANGER: Inhibition of human HuH-7 cell growth in a cell viability assay.

[9] = system: JEG-3; test: cells; format: functional, cell-based; details: Homo sapiens;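 note: growth inhibition of human JEG-3 cells, read out with a cell viability assay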
Description: SANGER: Inhibition of human JEG-3 cell growth in a cell viability assay.

[10] = system: KOSC-2; test: cells; format: functional, cell-based; details: Homo sapiens;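 note: growth inhibition of KOSC-2 cells, read out by a cell viability assay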
Description: SANGER: Inhibition of human KOSC-2 cell growth in a cell viability assay.

[11] = system: KP-4; test: cells; format: functional, cell-based; details: Homo sapiens;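 note: human KP-4 cells, with growth inhibition read out through a cell viability assay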
Description: SANGER: Inhibition of human KP-4 cell growth in a cell viability assay.

[12] = system: KYSE-140; test: cells; format: functional, cell-based; details: Homo sapiens;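 note: cell viability assay measuring growth inhibition in human KYSE-140 cells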
Description: SANGER: Inhibition of human KYSE-140 cell growth in a cell viability assay.

[13] = system: KYSE-180; test: cells; format: functional, cell-based; details: Homo sapiens;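 note: growth inhibition of KYSE-180 cells, read out with a cell viability assay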
Description: SANGER: Inhibition of human KYSE-180 cell growth in a cell viability assay.

[14] = system: KYSE-270; test: cells; format: functional, cell-based; details: Homo sapiens;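 note: cell growth inhibition measured with a viability assay in the human KYSE-270 line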
Description: SANGER: Inhibition of human KYSE-270 cell growth in a cell viability assay.

[15] = system: KYSE-450; test: cells; format: functional, cell-based; details: Homo sapiens;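 note: cell growth inhibition measured by a viability assay in human KYSE-450 cells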
Description: SANGER: Inhibition of human KYSE-450 cell growth in a cell viability assay.

[16] = system: ME-180; test: cells; format: functional, cell-based; details: Homo sapiens;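 note: cell viability assay measuring growth inhibition of ME-180 cells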
Description: SANGER: Inhibition of human ME-180 cell growth in a cell viability assay.

[17] = system: MFE-280; test: cells; format: functional, cell-based; details: Homo sapiens;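 note: growth inhibition of MFE-280 cells, determined with a cell viability readout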
Description: SANGER: Inhibition of human MFE-280 cell growth in a cell viability assay.

[18] = system: MG-63; test: cells; format: functional, cell-based; details: Homo sapiens;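 note: growth inhibition of human MG-63 cells, read out with a cell viability assay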
Description: SANGER: Inhibition of human MG-63 cell growth in a cell viability assay.

[19] = system: MKN-1; test: cells; format: functional, cell-based; details: Homo sapiens;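 note: growth inhibition of human MKN1 cells, read out by a cell viability measurement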
Description: SANGER: Inhibition of human MKN1 cell growth in a cell viability assay.

[20] = system: MKN-28; test: cells; format: functional, cell-based; details: Homo sapiens;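 note: cell viability assay read-out, IC50 reflects suppression of growth of human MKN-28 cells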
Description: SANGER: Inhibition of human MKN28 cell growth in a cell viability assay.

[21] = system: MKN-45; test: cells; format: functional, cell-based; details: Homo sapiens;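 note: growth inhibition of human MKN-45 cells, measured with a cell viability assay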
Description: SANGER: Inhibition of human MKN45 cell growth in a cell viability assay.

[22] = system: NCI-H1563; test: cells; format: functional, cell-based; details: Homo sapiens;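 note: growth inhibition of human NCI-H1563 cells, read out with a cell viability assay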
Description: SANGER: Inhibition of human NCI-H1563 cell growth in a cell viability assay.

[23] = system: NCI-H1755; test: cells; format: functional, cell-based; details: Homo sapiens;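 note: cell viability readout used to measure growth inhibition of NCI-H1755 cells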
Description: SANGER: Inhibition of human NCI-H1755 cell growth in a cell viability assay.

[24] = system: NCI-H1993; test: cells; format: functional, cell-based; details: Homo sapiens;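 note: growth inhibition of the cancer cell line, assessed with a cell viability assay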
Description: SANGER: Inhibition of human NCI-H1993 cell growth in a cell viability assay.

[25] = system: NCI-H2009; test: cells; format: functional, cell-based; details: Homo sapiens;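 note: cell viability assay measuring inhibition of NCI-H2009 cell growth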
Description: SANGER: Inhibition of human NCI-H2009 cell growth in a cell viability assay.

[26] = system: NCI-H2170; test: cells; format: functional, cell-based; details: Homo sapiens;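 note: cell viability assay measuring growth inhibition of human NCI-H2170 cancer cells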
Description: SANGER: Inhibition of human NCI-H2170 cell growth in a cell viability assay.

[27] = system: NCI-H2342; test: cells; format: functional, cell-based; details: Homo sapiens;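 note: growth inhibition of the cancer cell line, determined with a cell viability assay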
Description: SANGER: Inhibition of human NCI-H2342 cell growth in a cell viability assay.

[28] = system: NCI-H358; test: cells; format: functional, cell-based; details: Homo sapiens;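 note: growth inhibition of NCI-H358 human cells, read out with a cell viability assay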
Description: SANGER: Inhibition of human NCI-H358 cell growth in a cell viability assay.

[29] = system: NCI-H596; test: cells; format: functional, cell-based; details: Homo sapiens;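 note: growth inhibition of NCI-H596 cells, read out with a cell viability assay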
Description: SANGER: Inhibition of human NCI-H596 cell growth in a cell viability assay.

[30] = system: OAW-28; test: cells; format: functional, cell-based; details: Homo sapiens;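 note: growth inhibition of OAW-28 cells, read out with a cell viability assay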
Description: SANGER: Inhibition of human OAW-28 cell growth in a cell viability assay.

[31] = system: OVCAR-3; test: cells; format: functional, cell-based; details: Homo sapiens;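 note: growth inhibition of human OVCAR-3 cells, determined by a cell viability assay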
Description: SANGER: Inhibition of human OVCAR-3 cell growth in a cell viability assay.

[32] = system: OVCAR-8; test: cells; format: functional, cell-based; details: Homo sapiens;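 note: growth inhibition of human OVCAR-8 cells, read out by a cell viability assay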
Description: SANGER: Inhibition of human OVCAR-8 cell growth in a cell viability assay.

[33] = system: P12-Ichikawa; test: cells; format: functional, cell-based; details: Homo sapiens
[34] = system: RT-112; test: cells; format: functional, cell-based; details: Homo sapiens
Description: SANGER: Inhibition of human RT-112 cell growth in a cell viability assay.

[35] = system: SK-HEP1; test: cells; format: functional, cell-based, SK-HEP-1; details: Homo sapiens;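 note: cell viability readout used to quantify reduction in proliferation of human SK-HEP-1 cells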
Description: SANGER: Inhibition of human SK-HEP-1 cell growth in a cell viability assay.

[36] = system: SK-LU-1; test: cells; format: functional, cell-based; details: Homo sapiens;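 note: cell viability assay measuring growth inhibition of human SK-LU-1 cells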
Description: SANGER: Inhibition of human SK-LU-1 cell growth in a cell viability assay.

[37] = system: SNU-387; test: cells; format: functional, cell-based; details: Homo sapiens
Description: SANGER: Inhibition of human SNU-387 cell growth in a cell viability assay.

[38] = system: SW1088; test: cells; format: functional, cell-based; details: Homo sapiens;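 note: growth inhibition of human SW1088 cells, read out by a cell viability assay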
Description: SANGER: Inhibition of human SW1088 cell growth in a cell viability assay.

[39] = system: SW1417; test: cells; format: functional, cell-based; details: Homo sapiens;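 note: growth inhibition of human SW1417 cells, read out with a cell viability assay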
Description: SANGER: Inhibition of human SW1417 cell growth in a cell viability assay.

[40] = system: SW1783; test: cells; format: functional, cell-based; details: Homo sapiens
Description: SANGER: Inhibition of human SW1783 cell growth in a cell viability assay.

[41] = system: SAOS-2; test: cells; format: functional, cell-based; details: Homo sapiens;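 note: growth inhibition of human Saos-2 cells determined by a cell viability assay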
Description: SANGER: Inhibition of human Saos-2 cell growth in a cell viability assay.

[42] = system: T98G; test: cells; format: functional, cell-based; details: Homo sapiens;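 note: growth inhibition of T98G cells, read out by a cell viability assay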
Description: SANGER: Inhibition of human T98G cell growth in a cell viability assay.

[43] = system: TCC-SUP; test: cells; format: functional, cell-based; details: Homo sapiens;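 note: growth inhibition of TCC-SUP cells, read out with a cell viability assay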
Description: SANGER: Inhibition of human TCCSUP cell growth in a cell viability assay.

[44] = system: 647-V; test: cells; format: functional, cell-based; details: Homo sapiens;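 note: growth inhibition of 647-V cells, read out with a cell viability assay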
Description: SANGER: Inhibition of human 647-V cell growth in a cell viability assay.

[45] = system: A673; test: cells; format: functional, cell-based; details: Homo sapiens;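 note: growth inhibition of human A673 cells, read out through a cell viability assay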
Description: SANGER: Inhibition of human A673 cell growth in a cell viability assay.

[46] = system: AU565; test: cells; format: functional, cell-based; details: Homo sapiens;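 note: cell viability assay measuring growth inhibition of human AU565 cells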
Description: SANGER: Inhibition of human AU565 cell growth in a cell viability assay.

[47] = system: BFTC-909; test: cells; format: functional, cell-based; details: Homo sapiens
Description: SANGER: Inhibition of human BFTC-909 cell growth in a cell viability assay.

[48] = system: CAL-62; test: cells; format: functional, cell-based; details: Homo sapiens;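 note: growth inhibition of CAL-62 cells, read out with a cell viability assay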
Description: SANGER: Inhibition of human CAL-62 cell growth in a cell viability assay.

[49] = system: UMUC3; test: cells; format: functional, cell-based; details: Homo sapiens;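 note: growth inhibition of human UM-UC-3 cells, read out with a cell viability assay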
Description: SANGER: Inhibition of human UM-UC-3 cell growth in a cell viability assay.

[50] = system: YKG-1; test: cells; format: functional, cell-based; details: Homo sapiens;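 note: cell growth inhibition, read out with a viability assay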
Description: SANGER: Inhibition of human YKG-1 cell growth in a cell viability assay.

[51] = system: CHL-1; test: cells; format: functional, cell-based; details: Homo sapiens;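 note: cell growth inhibition, read out with a cell viability assay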
Description: SANGER: Inhibition of human CHL-1 cell growth in a cell viability assay.

[52] = system: COR-L279; test: SANGER: Inhibition of human COR-L279 cell growth in a cell viability assay.; format: functional, cell-based
[53] = system: EVSA-T; test: cells; format: functional, cell-based; details: Homo sapiens;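 note: growth inhibition of EVSA-T cells, read out with a cell viability assay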
Description: SANGER: Inhibition of human EVSA-T cell growth in a cell viability assay.

[54] = system: LU-165; test: cells; format: functional, cell-based; details: Homo sapiens
Description: SANGER: Inhibition of human LU-165 cell growth in a cell viability assay.

[55] = system: MONO-MAC-6; test: cells; format: functional, cell-based; details: Homo sapiens;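 note: cell viability assay measuring growth inhibition of human MONO-MAC-6 cells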
Description: SANGER: Inhibition of human MONO-MAC-6 cell growth in a cell viability assay.

[56] = system: NB1; test: cells; format: functional, cell-based; details: Homo sapiens;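 note: reduction of NB1 cell proliferation, read out with a viability assay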
Description: SANGER: Inhibition of human NB1 cell growth in a cell viability assay.

[57] = system: NCI-H2196; test: cells; format: functional, cell-based; details: Homo sapiens;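 note: cell viability assay used as the readout of growth inhibition in NCI-H2196 cells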
Description: SANGER: Inhibition of human NCI-H2196 cell growth in a cell viability assay.

[58] = system: NCI-H64; test: cells; format: functional, cell-based; details: Homo sapiens;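 note: growth inhibition of NCI-H64 cells, read out with a cell viability assay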
Description: SANGER: Inhibition of human NCI-H64 cell growth in a cell viability assay.

[59] = system: SCC-3; test: cells; format: functional, cell-based; details: Homo sapiens;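 note: cell viability assay measuring inhibition of SCC-3 cell growth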
Description: SANGER: Inhibition of human SCC-3 cell growth in a cell viability assay.

[60] = system: SIG-M5; test: cells; format: functional, cell-based; details: Homo sapiens
Description: SANGER: Inhibition of human SIG-M5 cell growth in a cell viability assay.

[61] = system: SIMA; test: cells; format: functional, cell-based; details: Homo sapiens
Description: SANGER: Inhibition of human SIMA cell growth in a cell viability assay.

[62] = system: SU-DHL-1; test: SANGER: Inhibition of human SU-DHL-1 cell growth in a cell viability assay.; format: functional, cell-based
[63] = system: TE-441-T; test: cells; format: functional, cell-based; details: Homo sapiens
Description: SANGER: Inhibition of human TE-441-T cell growth in a cell viability assay.

[64] = system: TUR; test: cells; format: functional, cell-based; details: Homo sapiens
Description: SANGER: Inhibition of human TUR cell growth in a cell viability assay.

Cn1cc(/C=C2\C(=O)Nc3cccnc32)c2ccccc21
IC50 [1]: > 2 µM | IC50 [2]: > 2 µM | IC50 [3]: > 2 µM | IC50 [4]: > 2 µM | IC50 [5]: > 2 µM | IC50 [6]: > 2 µM | IC50 [7]: > 2 µM | IC50 [8]: > 2 µM | IC50 [9]: > 2 µM | IC50 [10]: > 2 µM | IC50 [11]: > 2 µM | IC50 [12]: > 2 µM | IC50 [13]: > 2 µM | IC50 [14]: > 2 µM | IC50 [15]: > 2 µM | IC50 [16]: > 2 µM | IC50 [17]: > 2 µM | IC50 [18]: > 2 µM | IC50 [19]: > 2 µM | IC50 [20]: > 2 µM | IC50 [21]: > 2 µM | IC50 [22]: > 2 µM | IC50 [23]: > 2 µM | IC50 [24]: > 2 µM | IC50 [25]: > 2 µM | IC50 [26]: > 2 µM | IC50 [27]: > 2 µM | IC50 [28]: > 2 µM | IC50 [29]: > 2 µM | IC50 [30]: > 2 µM | IC50 [31]: > 2 µM | IC50 [32]: > 2 µM | IC50 [33]: > 2 µM | IC50 [34]: > 2 µM | IC50 [35]: > 2 µM | IC50 [36]: > 2 µM | IC50 [37]: > 2 µM | IC50 [38]: > 2 µM | IC50 [39]: > 2 µM | IC50 [40]: > 2 µM | IC50 [41]: > 2 µM | IC50 [42]: > 2 µM | IC50 [43]: > 2 µM | IC50 [44]: > 2 µM | IC50 [45]: > 2 µM | IC50 [46]: > 2 µM | IC50 [47]: > 2 µM | IC50 [48]: > 2 µM | IC50 [49]: > 2 µM | IC50 [50]: > 2 µM | IC50 [51]: > 2 µM

NC(=O)c1ncn([C@@H]2O[C@H](COP(=O)(O)O)[C@@H](O)[C@H]2O)c1N
IC50 [1]: > 2000 µM | IC50 [2]: > 2000 µM | IC50 [3]: > 2000 µM | IC50 [4]: 1890 µM | IC50 [5]: > 2000 µM | IC50 [6]: 472 µM | IC50 [7]: > 2000 µM | IC50 [8]: > 2000 µM | IC50 [9]: 1440 µM | IC50 [10]: 526 µM | IC50 [11]: > 2000 µM | IC50 [12]: 1730 µM | IC50 [13]: 453 µM | IC50 [14]: > 2000 µM | IC50 [15]: 1300 µM | IC50 [16]: 416 µM | IC50 [17]: > 2000 µM | IC50 [18]: > 2000 µM | IC50 [19]: > 2000 µM | IC50 [20]: > 2000 µM | IC50 [21]: > 2000 µM | IC50 [23]: 1840 µM | IC50 [25]: 1460 µM | IC50 [26]: > 2000 µM | IC50 [27]: > 2000 µM | IC50 [28]: > 2000 µM | IC50 [29]: > 2000 µM | IC50 [31]: > 2000 µM | IC50 [32]: > 2000 µM | IC50 [33]: 1470 µM | IC50 [34]: 1870 µM | IC50 [35]: 920 µM | IC50 [36]: 1700 µM | IC50 [37]: > 2000 µM | IC50 [38]: > 2000 µM | IC50 [39]: > 2000 µM | IC50 [40]: > 2000 µM | IC50 [41]: > 2000 µM | IC50 [42]: > 2000 µM | IC50 [43]: 1030 µM | IC50 [44]: > 2000 µM | IC50 [45]: > 2000 µM | IC50 [46]: 357 µM | IC50 [47]: > 2000 µM | IC50 [48]: > 2000 µM | IC50 [49]: 1750 µM | IC50 [50]: 552 µM | IC50 [51]: > 2000 µM

C[C@]12O[C@H](C[C@]1(O)CO)n1c3ccccc3c3c4c(c5c6ccccc6n2c5c31)CNC4=O [LESTAURTINIB]
IC50 [1]: > 2 µM | IC50 [2]: > 2 µM | IC50 [3]: 0.862 µM | IC50 [4]: 0.566 µM | IC50 [5]: 0.0403 µM | IC50 [6]: 0.449 µM | IC50 [7]: > 2 µM | IC50 [8]: > 2 µM | IC50 [9]: 0.73 µM | IC50 [10]: 0.327 µM | IC50 [11]: 0.568 µM | IC50 [12]: 0.449 µM | IC50 [13]: > 2 µM | IC50 [14]: 0.392 µM | IC50 [15]: > 2 µM | IC50 [16]: 0.737 µM | IC50 [17]: > 2 µM | IC50 [18]: 0.445 µM | IC50 [19]: > 2 µM | IC50 [20]: > 2 µM | IC50 [21]: 1.12 µM | IC50 [22]: > 2 µM | IC50 [23]: 0.185 µM | IC50 [24]: > 2 µM | IC50 [25]: 1.23 µM | IC50 [26]: > 2 µM | IC50 [27]: > 2 µM | IC50 [28]: > 2 µM | IC50 [29]: > 2 µM | IC50 [30]: > 2 µM | IC50 [31]: > 2 µM | IC50 [32]: 0.753 µM | IC50 [33]: 0.0262 µM | IC50 [34]: 0.464 µM | IC50 [35]: 0.0313 µM | IC50 [36]: 0.256 µM | IC50 [37]: 0.601 µM | IC50 [38]: 0.874 µM | IC50 [39]: 1.17 µM | IC50 [40]: 1.6 µM | IC50 [41]: 0.635 µM | IC50 [42]: 0.327 µM | IC50 [43]: 1.85 µM | IC50 [44]: 1 µM | IC50 [45]: 0.718 µM | IC50 [46]: 1.65 µM | IC50 [47]: 0.249 µM | IC50 [48]: 0.254 µM | IC50 [49]: 1.15 µM | IC50 [50]: 0.325 µM | IC50 [51]: 0.0135 µM

CCNc1cc(N[C@H]2CC[C@@H](O)CC2)nc(Nc2ccc3c(ccn3Cc3ccccc3)c2)n1
IC50 [52]: > 5.12 µM | IC50 [53]: > 5.12 µM | IC50 [54]: > 5.12 µM | IC50 [55]: > 5.12 µM | IC50 [56]: > 5.12 µM | IC50 [57]: > 5.12 µM | IC50 [58]: > 5.12 µM | IC50 [59]: > 5.12 µM | IC50 [60]: > 5.12 µM | IC50 [61]: > 5.12 µM | IC50 [62]: > 5.12 µM | IC50 [63]: > 5.12 µM | IC50 [64]: > 5.12 µM
